The test system of series [1] is mice. Kind of series: Anti-electroshock convulsant activity (maximal electroshock). Type of series: in vivo, mouse (ddY-type male mice). The note with it: Mus musculus, PO, electroshock 30 mA, 200 Hz 1 hour later, read-out: ED50 anti-convulsion, maximal electroshock. Here is the method: (§1) In the following tests, the pharmacological actions of the compounds were tested by using six mice (ddY-type male mice) for each dosage level, and ED50 values were determined. In the determination of ED50 values, the dosages of the test compounds were increased or decreased by a common ratio of 3 as required, and 3 or 4 dosage levels were used. The calculation of the ED50 values was made on the basis of the Litchfield-Wilcoxon method [J. Pharmacol. Exp. Therap., 96, 99 (1949)].
(3) Anti-electroshock convulsant activity
The subjects were orally administered with the test compound. One hour later, electroshock (30 mA, 200 Hz, 1 msec) was applied for 0.2 second through both ears, and the presence or absence of tonic extensor convulsion was examined.
(In the maximal electroshock model the usual endpoint is tonic extension of the hind limbs.)

The subject of series [2] is mice. Kind of series: Taming activity (fighting mouse). Type of series: in vivo, mouse (ddY-type male mice). The note with it: PO, electroshock 100 V, 3 mA. Here is the method: as §1
This was determined by a partially modified version of the method of Tedeschi et al. [J. Pharmacol. Exp. Therap., 125, 28 (1959)]. Two mice different in body weight by less than 1 gram were placed in a fighting device, and electroshock (100 V, 3 mA, 0.45 Hz, 0.5 sec) was applied for 3 minutes. […] Then, at intervals of 30 minutes, electroshock was applied under the above conditions, and the presence or absence of fighting reaction in the subjects was examined.

Series [3] relates to mice. Kind of series: Acute toxicity. Type of series: in vivo, mouse (male ddY-type mice). To be noted: one week observation. Here is the method:
A test compound was suspended in a 5% solution of gum arabic, and the suspension was administered to a group of 2 to 4 male ddY-type mice in a dose of 1000, 2000, and 3000 mg/kg, respectively. The conditions of the subjects were observed over a period of one week after administration, and the acute toxicity was examined.

Series [4] has as its system mice. Kind of series: Muscle relaxant activity (inclined screen). To be noted: Mus musculus, PO, plate inclined at 70°, 30 seconds, read-out: ED50 muscle relaxation, inclined screen. Type of series: in vivo, mouse (ddY-type male mice). Here is the method: as §1
(5) Muscle relaxant activity
Mice were placed on a wooden plate having a smooth surface and being inclined at an angle of 70°, and those which could stay on the initially placed positions for more than 30 seconds were selected. The selected subjects were orally administered with the test compound, and placed on the inclined plate. Examination was made as to whether the mice slipped down within 30 seconds.

The test system of series [5] is mice. Kind of series: Potentiation of thiopental hypnosis (sedation). It is filed as in vivo, mouse (ddY-type male mice). The note with it: Mus musculus, 1 h, PO, sodium thiopental 50 mg/kg i.p., sleeping time prolonged to two times. Here is the method: as §1
(4) Potentiation of thiopental hypnosis
The subjects were orally administered with the test compound. One hour later, sodium thiopental in an amount of 50 mg/kg was administered intraperitoneally. The dosage which prolonged the sleeping time (the period of loss of righting reflex) to two times that in the case of a group administered only with sodium thiopental was determined.

Series [6] has as its system mice. Kind of series: Anti-pentylene tetrazole convulsion activity. It is filed as in vivo, mouse (ddY-type male mice). The note with it: Mus musculus, PO, pentylene tetrazole 125 mg/kg s.c. 1 hour later, read-out: ED50 anti-convulsion, pentetrazol shock. Here is the method:
as §1
(1) Anti-pentylene tetrazole convulsion activity
Each of test compounds suspended in a 5% gum arabic solution was orally administered to mice. One hour later, pentylene tetrazole in an amount of 125 mg/kg was administered subcutaneously. Then, over the course of 30 minutes, the presence or absence of convulsion in the subjects was examined.

Series [7] concerns mice. Kind of series: Motor incoordinating activity (rotating rod). Type of series: in vivo, mouse (ddY-type male mice). To be noted: Mus musculus, 0.05 h, PO, 5.5 rpm, within 3 minutes, read-out: ED50 motor incoordination, rotating rod. Here is the method:
as §1
(6) Motor incoordinating activity
Mice which could stay for more than 3 minutes on a rotating rod having a diameter of 3.0 cm and rotating at a speed of 5.5 rpm. The subjects were orally administered with the test compound, and then at intervals of 30 minutes, they were placed on the rotating rod. Examination was made as to whether they slipped down within 3 minutes.

Series [8] in a line: Pharmacological / central nervous system depressant actions, general statement. The note with it: anti-anxietic, sedative, hypnotic, muscle relaxant, anti-convulsant actions. It is filed as in vivo.

Consider 15 molecules from patent publication US4169150A, “Benzodiazepine derivatives and pharmaceutical compositions containing said derivatives” (Teijin Limited, priority 1975, dated 1979).

As usually defined, the ED50 is the dose at which the effect has come halfway, by size or by number of responders.

Take `CN1C(=O)CN=C(c2ccccc2)c2cc(Cl)ccc21` [Diazepam, reference compound]: the 50% effective dose (ED50) is 8.8 mg/kg in series [1]; 1.6 mg/kg in series [2]; 1 mg/kg in series [4]; 0.3 mg/kg in series [5]; 0.7 mg/kg in series [6]. In addition, in series [3] (1000 mg/kg), the “Acute toxicity: death of the subjects” value is recorded as “caused half of the mice to die”.

With `Cc1cc(C)n2c1CN=C(c1c(F)cccc1F)c1cc(Cl)ccc1-2` [Compound 11, 8-chloro-6-(2,6-difluorophenyl)-1,3-dimethyl-4H-pyrrolo[1,2-a][1,4]benzodiazepine], the ED50 in series [1] was 88 mg/kg; in series [2] it was 1.6 mg/kg; in series [7], 15.5 mg/kg; in series [4], 10 mg/kg; in series [5] it was 0.7 mg/kg; in series [6], 2 mg/kg. Also, in series [3] (3000 mg/kg), the “Acute toxicity: death of the subjects” value was “did not cause any death”.

On to `Cc1cc2n(c1C)-c1ccc(Cl)cc1C(c1ccccc1Cl)=NC2` [Compound 4, 8-chloro-6-(2-chlorophenyl)-1,2-dimethyl-4H-pyrrolo[1,2-a][1,4]benzodiazepine], for which the ED50 is greater than 100 mg/kg in series [1]; 4.8 mg/kg in series [2]; 40 mg/kg in series [7]; greater than 100 mg/kg in series [4]; 2.6 mg/kg in series [5]; 6.5 mg/kg in series [6].

In the case of `Clc1ccc2c(c1)C(c1ccccc1Cl)=NCc1cccn1-2` [Comparison (R5=Cl, R6=Cl, R7=H), reference compound], the ED50 is greater than 100 mg/kg in series [1]; greater than 100 mg/kg in series [2]; greater than 100 mg/kg in series [7]; greater than 100 mg/kg in series [4]; 18 mg/kg in series [5]; greater than 100 mg/kg in series [6].

As for `CCc1cc2n(c1C)-c1ccc(Cl)cc1C(c1ccccc1F)=NC2` [Compound 7, 8-chloro-2-ethyl-6-(2-fluorophenyl)-1-methyl-4H-pyrrolo[1,2-a][1,4]benzodiazepine], the ED50 in series [1] is greater than 30 mg/kg; in series [2], 5.5 mg/kg; in series [7] it was greater than 100 mg/kg; in series [4] it was 30 mg/kg; in series [5], 2.2 mg/kg; in series [6], 5.5 mg/kg.

Regarding `CCc1cc2n(c1C)-c1ccc(Cl)cc1C(c1ccccc1Cl)=NC2` [Compound 6, 8-chloro-6-(2-chlorophenyl)-2-ethyl-1-methyl-4H-pyrrolo[1,2-a][1,4]benzodiazepine], the ED50 in series [1] is greater than 30 mg/kg; in series [2], 5.5 mg/kg; in series [7], 23.5 mg/kg; in series [4], 14 mg/kg; in series [5], 0.8 mg/kg; in series [6], 3.4 mg/kg.

With `Cc1ccc2n1-c1ccc(Cl)cc1C(c1ccccc1F)=NC2` [Compound 2, 8-chloro-6-(2-fluorophenyl)-1-methyl-4H-pyrrolo[1,2-a][1,4]benzodiazepine], the ED50 in series [1] is greater than 100 mg/kg; in series [2] it was 55 mg/kg; in series [7], greater than 100 mg/kg; in series [4], greater than 100 mg/kg; in series [5], 6.9 mg/kg; in series [6], 36 mg/kg.

For `Clc1ccc2c(c1)C(c1ccccc1)=NCc1cccn1-2` [Comparison (R5=Cl, R6=H, R7=H), 8-Chloro-6-phenyl-4H-pyrrolo[1,2-a][1,4]benzodiazepine, reference compound], the median effective dose (ED50) in series [1] is greater than 100 mg/kg; in series [2] it was greater than 100 mg/kg; in series [7], greater than 100 mg/kg; in series [4], greater than 100 mg/kg; in series [5], 44 mg/kg; in series [6], 78 mg/kg. Also, the “Pharmacological actions in words” value in series [8] is on record as “does not substantially show those pharmacological actions which are common to many other known benzodiazepines”.

Turning to `CCc1cc2n(c1C)-c1ccc(Cl)cc1C(c1c(F)cccc1F)=NC2` [Compound 8, 8-chloro-2-ethyl-6-(2,6-difluorophenyl)-1-methyl-4H-pyrrolo[1,2-a][1,4]benzodiazepine], the median effective dose (ED50) was greater than 30 mg/kg in series [1]; 12.5 mg/kg in series [2]; greater than 100 mg/kg in series [7]; 69 mg/kg in series [4]; 1.9 mg/kg in series [5]; 11.2 mg/kg in series [6].

On to `Cc1ccc2n1-c1ccc(Cl)cc1C(c1ccccc1Cl)=NC2` [Compound 1, 8-chloro-6-(2-chlorophenyl)-1-methyl-4H-pyrrolo[1,2-a][1,4]benzodiazepine], for which the ED50 in series [1] was greater than 100 mg/kg; in series [2], 11 mg/kg; in series [7] it was 100 mg/kg; in series [4], greater than 100 mg/kg; in series [5], 2.8 mg/kg; in series [6], 20 mg/kg.

Take `Cc1cc2n(c1C)-c1ccc(Cl)cc1C(c1ccccc1F)=NC2` [Compound 3, 8-chloro-1,2-dimethyl-6-(2-fluorophenyl)-4H-pyrrolo[1,2-a][1,4]benzodiazepine]: the ED50 in series [1] was greater than 100 mg/kg; in series [2] it was 17 mg/kg; in series [7] it was greater than 100 mg/kg; in series [4], greater than 100 mg/kg; in series [5], 10 mg/kg; in series [6], 10 mg/kg.

For the molecule `Cc1cc(C)n2c1CN=C(c1ccccc1F)c1cc(Cl)ccc1-2` [Compound 10, 8-chloro-1,3-dimethyl-6-(2-fluorophenyl)-4H-pyrrolo[1,2-a][1,4]benzodiazepine], the ED50 was greater than 100 mg/kg in series [1]; 8.8 mg/kg in series [2]; greater than 30 mg/kg in series [7]; 21.5 mg/kg in series [4]; 2.4 mg/kg in series [5]; 5.5 mg/kg in series [6].

As for `Cc1cc(C)n2c1CN=C(c1ccccc1Cl)c1cc(Cl)ccc1-2` [Compound 9, 8-chloro-6-(2-chlorophenyl)-1,3-dimethyl-4H-pyrrolo[1,2-a][1,4]benzodiazepine], the ED50 in series [1] was 100 mg/kg; in series [2], 1.6 mg/kg; in series [7] it was 15.5 mg/kg; in series [4] it was 8.2 mg/kg; in series [5], 0.34 mg/kg; in series [6] it was 1.8 mg/kg. For the same molecule, the “Acute toxicity: death of the subjects” value in series [3] (3000 mg/kg) was “did not cause any death”.

With `c1ccc(C2=NCc3cccn3-c3ccccc32)cc1` [Comparison (R5=H, R6=H, R7=H), reference compound], the ED50 is greater than 100 mg/kg in series [1]; 78 mg/kg in series [2]; greater than 100 mg/kg in series [7]; greater than 100 mg/kg in series [4]; 55 mg/kg in series [5]; greater than 100 mg/kg in series [6].

As for `Cc1cc2n(c1C)-c1ccc(Cl)cc1C(c1ccccc1)=NC2` [Compound 5, 8-chloro-1,2-dimethyl-6-phenyl-4H-pyrrolo[1,2-a][1,4]benzodiazepine], the ED50 was greater than 100 mg/kg in series [1]; no less than 30 mg/kg in series [2]; greater than 100 mg/kg in series [7]; greater than 100 mg/kg in series [4]; 21 mg/kg in series [5]; 13.5 mg/kg in series [6].
